Assay results: patent publication US20090093469A1, “Phenylaminopropanol Derivatives and Methods of Their Use” (WYETH, priority 2004, published 2009)
Counter-ions that a name gives are not always drawn.

The molecules below were run against T1, hNET (Homo sapiens, UniProt P23975) (assay: Norepinephrine (NE) uptake assay in MDCK-Net6 cells stably transfected with human hNET). Conditions: MDCK-Net6, read-out: % Inhibition @ 1 μM (hNET).
T1 construct: expressed in transfected cells
Format: cell-based

T1 sequence (P23975 whole entry): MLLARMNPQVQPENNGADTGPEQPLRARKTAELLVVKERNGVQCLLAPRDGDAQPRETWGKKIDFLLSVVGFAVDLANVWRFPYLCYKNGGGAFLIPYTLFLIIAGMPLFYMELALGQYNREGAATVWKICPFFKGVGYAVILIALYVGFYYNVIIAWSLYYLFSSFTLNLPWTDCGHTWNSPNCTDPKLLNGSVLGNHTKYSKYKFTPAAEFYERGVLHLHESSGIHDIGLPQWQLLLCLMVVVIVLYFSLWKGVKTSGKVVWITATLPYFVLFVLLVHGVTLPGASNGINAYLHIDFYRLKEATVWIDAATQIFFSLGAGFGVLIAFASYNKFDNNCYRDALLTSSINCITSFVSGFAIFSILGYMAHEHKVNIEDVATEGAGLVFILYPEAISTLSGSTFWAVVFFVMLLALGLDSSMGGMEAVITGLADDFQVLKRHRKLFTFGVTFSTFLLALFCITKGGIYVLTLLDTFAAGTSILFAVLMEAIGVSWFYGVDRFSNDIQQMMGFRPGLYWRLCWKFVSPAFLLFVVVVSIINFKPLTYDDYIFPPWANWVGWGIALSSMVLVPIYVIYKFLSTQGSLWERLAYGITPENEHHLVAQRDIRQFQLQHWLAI

SMILES | inhibition at 1 µM [%]
CNC[C@@H](O)[C@H](c1cccc(F)c1)n1ccc2cc(Cl)ccc21 [Example 153, (1S,2R)-1-(5-chloro-1H-indol-1-yl)-1-(3-fluorophenyl)-3-(methylamino)propan-2-ol hydrochloride] | 97.4
Cc1cn([C@@H](c2ccccc2)[C@H](O)CN)c2ccccc12 [Example 178, (1S,2R)-3-amino-1-(3-methyl-1H-indol-1-yl)-1-phenylpropan-2-ol hydrochloride] | 69.2
CNC[C@@H](O)[C@H](c1cccc(F)c1)n1ccc2cccc(F)c21 [Example 183, (1S,2R)-1-(7-fluoro-1H-indol-1-yl)-1-(3-fluorophenyl)-3-(methylamino)propan-2-ol hydrochloride] | 100
CNC[C@@H](O)[C@H](c1cccc(F)c1)n1ccc2c(F)cccc21 [Example 184, (1S,2R)-1-(4-fluoro-1H-indol-1-yl)-1-(3-fluorophenyl)-3-(methylamino)propan-2-ol hydrochloride] | 99.7
CNC[C@@H](O)[C@H](c1ccccc1)n1c(=O)n(C(C)(C)C)c2ccccc21 [Example 192, 1-tert-Butyl-3-(2-hydroxy-3-methylamino-1-phenyl-propyl)-1,3-dihydro-benzoimidazol-2-one hydrochloride] | 54.6
CCCn1c(=O)n([C@@H](c2ccccc2)[C@H](O)CNC)c2ccccc21 [Example 193, 1-[(1S,2R)-2-hydroxy-3-(methylamino)-1-phenylpropyl]-3-propyl-1,3-dihydro-2H-benzimidazol-2-one hydrochloride] | 98.4
CNC[C@@H](O)[C@H](c1ccccc1)n1c(=O)n(C2CCC2)c2ccccc21 [Example 197, 1-cyclobutyl-3-[(1S,2R)-2-hydroxy-3-(methylamino)-1-phenylpropyl]-1,3-dihydro-2H-benzimidazol-2-one hydrochloride] | 97
CCCn1c(=O)n([C@@H](c2ccccc2)[C@H](O)CNC)c2cc(F)ccc21 [Example 198, 5-fluoro-3-[(1S,2R)-2-hydroxy-3-(methylamino)-1-phenylpropyl]-1-propyl-1,3-dihydro-2H-benzimidazol-2-one hydrochloride] | 97.7
CCn1c(=O)n([C@@H](c2cccc(F)c2)[C@H](O)CNC)c2ccccc21 [Example 199, 1-Ethyl-3-[1-(3-fluoro-phenyl)-2-hydroxy-3-methylamino-propyl]-1,3-dihydro-benzimidazol-2-one hydrochloride] | 99.1

Same assay, conditions: test compound 1 μM; [3H]NE uptake, MDCK-Net6 cells; read-out: % Inhibition @ 1 μM (hNET)

SMILES | inhibition at 1 µM [%]
CNC[C@@H](O)[C@H](c1ccccc1)n1cc(C(C)C)c2ccccc21 [Example 154, (1S,2R)-1-(3-isopropyl-1H-indol-1-yl)-3-(methylamino)-1-phenylpropan-2-ol hydrochloride] | 96.1
CNC[C@@H](O)[C@H](c1cccc(F)c1)n1cc(C(C)C)c2ccccc21 [Example 155, (1S,2R)-1-(3-fluorophenyl)-1-(3-isopropyl-1H-indol-1-yl)-3-(methylamino)propan-2-ol hydrochloride] | 98.9
CNC[C@@H](O)[C@H](c1cc(F)cc(F)c1)n1ccc2ccccc21 [Example 157, (1S,2R)-1-(3,5-difluorophenyl)-1-(1H-indol-1-yl)-3-(methylamino)propan-2-ol hydrochloride] | 99.6
CNC[C@@H](O)[C@H](c1cc(F)cc(F)c1)N1CCc2ccccc21 [Example 158, (1S,2R)-1-(3,5-difluorophenyl)-1-(2,3-dihydro-1H-indol-1-yl)-3-(methylamino)propan-2-ol hydrochloride] | 99.6
NCC[C@@H](O)[C@H](c1cccc(F)c1)n1ccc2ccccc21 [Example 159, (1S,2R)-4-amino-1-(3-fluorophenyl)-1-(1H-indol-1-yl)butan-2-ol hydrochloride] | 93.8
CNC[C@@H](O)[C@H](c1cccc(F)c1)n1cc(-c2ccc(OC)cc2)c2ccccc21 [Example 169, (1S,2R)-1-(3-fluorophenyl)-1-[3-(4-methoxyphenyl)-1H-indol-1-yl]-3-(methylamino)propan-2-ol hydrochloride] | 72
CNC[C@@H](O)[C@H](c1cccc(F)c1)n1cc(-c2ccc(C)cc2)c2ccccc21 [Example 170, (1S,2R)-1-(3-fluorophenyl)-3-(methylamino)-1-[3-(4-methylphenyl)-1H-indol-1-yl]propan-2-ol hydrochloride] | 96.4
CNC[C@@H](O)[C@H](c1cccc(F)c1)n1cc(-c2ccc(C(C)(C)C)cc2)c2ccccc21 [Example 171, (1S,2R)-1-[3-(4-tert-butylphenyl)-1H-indol-1-yl]-1-(3-fluorophenyl)-3-(methylamino)propan-2-ol hydrochloride] | 98.3
CNC[C@@H](O)[C@H](c1cccc(F)c1)n1cc(-c2cccc(OC)c2)c2ccccc21 [Example 172, (1S,2R)-1-(3-fluorophenyl)-1-[3-(3-methoxyphenyl)-1H-indol-1-yl]-3-(methylamino)propan-2-ol hydrochloride] | 88
CNC[C@@H](O)[C@H](c1cccc(F)c1)n1cc(-c2ccc(C(F)(F)F)cc2)c2ccccc21 [Example 173, (1S,2R)-1-(3-fluorophenyl)-3-(methylamino)-1-{3-[4-(trifluoromethyl)phenyl]-1H-indol-1-yl}propan-2-ol hydrochloride] | 67.5
CNC[C@@H](O)[C@H](c1cc(F)cc(F)c1)N1CCc2ccc(F)cc21 [Example 174, (1S,2R)-1-(3,5-difluorophenyl)-1-(6-fluoro-2,3-dihydro-1H-indol-1-yl)-3-(methylamino)propan-2-ol hydrochloride] | 99.1
CNC[C@@H](O)[C@H](c1cccc(F)c1)n1cc(-c2ccccc2C(F)(F)F)c2ccccc21 [Example 175, (1S,2R)-1-(3-fluorophenyl)-3-(methylamino)-1-{3-[2-(trifluoromethyl)phenyl]-1H-indol-1-yl}propan-2-ol hydrochloride] | 99.6
CNC[C@@H](O)[C@H](c1cccc(F)c1)n1cc(-c2ccccc2OC)c2ccccc21 [Example 176, (1S,2R)-1-(3-fluorophenyl)-1-[3-(2-methoxyphenyl)-1H-indol-1-yl]-3-(methylamino)propan-2-ol hydrochloride] | 100
CNC[C@@H](O)[C@H](c1cccc(F)c1)n1cc(-c2cccc(C(F)(F)F)c2)c2ccccc21 [Example 177, (1S,2R)-1-(3-fluorophenyl)-3-(methylamino)-1-{3-[3-(trifluoromethyl)phenyl]-1H-indol-1-yl}propan-2-ol hydrochloride] | 29.9
CNC[C@@H](O)[C@H](c1ccccc1)n1cc(C)c2cccc(F)c21 [Example 179, (1S,2R)-1-(7-fluoro-3-methyl-1H-indol-1-yl)-3-(methylamino)-1-phenylpropan-2-ol hydrochloride] | 99.8
Cc1cn([C@@H](c2ccccc2)[C@H](O)CN)c2c(F)cccc12 [Example 180, (1S,2R)-3-amino-1-(7-fluoro-3-methyl-1H-indol-1-yl)-1-phenylpropan-2-ol hydrochloride] | 70.4
CNC[C@@H](O)[C@H](c1ccccc1)n1ccc2cccc(F)c21 [Example 181, (1S,2R)-1-(7-fluoro-1H-indol-1-yl)-3-(methylamino)-1-phenylpropan-2-ol hydrochloride] | 96.9
CNC[C@@H](O)[C@H](c1ccccc1)n1ccc2c(F)cccc21 [Example 182, (1S,2R)-1-(4-fluoro-1H-indol-1-yl)-3-(methylamino)-1-phenylpropan-2-ol hydrochloride] | 97.1
CNC[C@@H](O)[C@H](c1cccc(F)c1)n1ccc2cc(C(F)(F)F)ccc21 [Example 185, (1S,2R)-1-(3-fluorophenyl)-3-(methylamino)-1-[5-(trifluoromethyl)-1H-indol-1-yl]propan-2-ol hydrochloride] | 80.8
CNC[C@@H](O)[C@H](c1ccccc1)n1ccc2ccc(F)cc21 [Example 186, (1S,2R)-1-(6-fluoro-1H-indol-1-yl)-3-(methylamino)-1-phenylpropan-2-ol hydrochloride] | 96.6
CNC[C@@H](O)[C@H](c1ccccc1)n1ccc2cc(C(F)(F)F)ccc21 [Example 188, (1S,2R)-3-(methylamino)-1-phenyl-1-[5-(trifluoromethyl)-1H-indol-1-yl]propan-2-ol hydrochloride] | 71.6
CNC[C@@H](O)[C@H](c1cccc(F)c1)n1cc(C(C)(C)C)c2ccccc21 [Example 189, (1S,2R)-1-(3-tert-butyl-1H-indol-1-yl)-1-(3-fluorophenyl)-3-(methylamino)propan-2-ol] | 99.3
CNC[C@@](C)(O)[C@H](c1ccccc1)n1ccc2ccccc21 [Example 190, (1S,2R)-1-(1H-indol-1-yl)-2-methyl-3-(methylamino)-1-phenylpropan-2-ol hydrochloride] | 53.7
CNC[C@@H](O)[C@](C)(c1ccccc1)n1ccc2ccccc21 [Example 191, (2R,3S)-3-(1H-indol-1-yl)-1-(methylamino)-3-phenylbutan-2-ol hydrochloride] | 63.9
CNC[C@@H](O)[C@H](c1ccccc1)N1C(=O)C(C)(C)c2cc(Br)ccc21 [Example 194, 5-bromo-1-[(1S,2R)-2-hydroxy-3-(methylamino)-1-phenylpropyl]-3,3-dimethyl-1,3-dihydro-2H-indol-2-one hydrochloride] | 79
CNC[C@@H](O)[C@H](c1ccccc1)N1C(=O)C(C)(C)c2ccc(F)cc21 [Example 195, 6-fluoro-1-[(1S,2R)-2-hydroxy-3-(methylamino)-1-phenylpropyl]-3,3-dimethyl-1,3-dihydro-2H-indol-2-one hydrochloride] | 91
CNC[C@@H](O)[C@H](c1ccccc1)N1C(=O)C(C)(C)c2c(F)cccc21 [Example 196, 4-fluoro-1-[(1S,2R)-2-hydroxy-3-(methylamino)-1-phenylpropyl]-3,3-dimethyl-1,3-dihydro-2H-indol-2-one hydrochloride] | 94.6
